Each molecule was assayed against T1, DNA-PK kinase (Homo sapiens, UniProt P78527) (assay: Inhibition assay of DNA-PK kinase (Promega kit, ADP-Glo chemiluminescence)). Conditions: 50 µM ATP, 37° C., 60 min; read-out: IC50 (nM), inhibitory activity on DNA-PK kinase.
T1 construct: purchased Promega V4107
Assay type: biochemical
Method: The inhibitory activity of the compounds on DNA-PK kinase was measured by using a DNA-PK kinase assay kit (purchased from Promega, Cat.#: V4107, Lot: 0000366495). The results were quantified by chemiluminescence, and the detailed experimental protocol was as follows: • i. An ADP-fluorescence standard curve over a range of concentrations was plotted according to the kit instructions; • ii. […] The mixtures were mixed well, centrifuged (1000 rpm, 30 s), and incubated at 37° C. for 60 min; • iv. 5 µL of ADP-Glo™ Reagent was added to stop the reaction, which was then mixed well, centrifuged (1000 rpm, 30 s), and incubated at room temperature for 40 min; • v. 10 µL Kinase Detection Reagent was added, and the mixture was mixed well by shaking, centrifuged (1000 rpm, 30 s), and incubated at room temperature for 30 min; • vi. The […] was measured by using a microplate reader (Thermo fisher, Varioskan LUX).
With `Cc1cc(C(N)=O)c(F)cc1Nc1ncc2c(n1)n(C1CCC(O)C1)c(=O)n2C` (stereo not drawn) [Compound 67, 2-Fluoro-4-((9-(3-hydroxycyclopentyl)-7-methyl-8-oxo-8,9-dihydro-7H-purin-2-yl)amino)-5-methylbenzamide] the IC50 was 2.96 nM.
`Cc1cc(C(N)=O)c(F)cc1Nc1ncc2c(n1)n([C@H]1C[C@@H](O)C1)c(=O)n2C` [Compound 94, 2-Fluoro-4-((9-(cis-3-hydroxycyclobutyl)-7-methyl-8-oxo-8,9-dihydro-7H-purin-2-yl)amino)-5-methylbenzamide] was tested, and the IC50 was 7.2 nM.
`Cc1cc(C(N)=O)c(F)cc1Nc1ncc2c(n1)n(C1C[C@@H]3COC[C@H]3C1)c(=O)n2C` [Compound 99, 2-fluoro-4-((9-((3aS,6aS)-hexahydro-1H-cyclopenta[c]furan-5-yl)-7-methyl-8-oxo-8,9-dihydro-7H-purin-2-yl)amino)-5-methylbenzamide] showed an IC50 of 2.13 nM.
Molecule `Cc1cc(C#N)ncc1Nc1ncc2c(n1)n(C1CCOCC1)c(=O)n2C` [Compound 17, 4-Methyl-5-((7-methyl-8-oxo-9-(tetrahydro-2H-pyran-4-yl)-8,9-dihydro-7H-purin-2-yl)amino)picolinonitrile] has an IC50 of 28.7 nM.
Work on `Cc1cc(C(N)=O)c(F)cc1Nc1ncc2c(n1)n(C13CCC(C#N)(CC1)CC3)c(=O)n2C` [Compound 90, 4-((9-(4-cyanobicyclo[2.2.2]octan-1-yl)-7-methyl-8-oxo-8,9-dihydro-7H-purin-2-yl)amino)-2-fluoro-5-methylbenzamide] yielded an IC50 of 10.8 nM.
Molecule `CO[C@H]1CC[C@@H](n2c(=O)n(C)c3cnc(Nc4cc(F)c(C(N)=O)cc4C)nc32)CC1` [Compound 70, 2-Fluoro-4-((9-(cis-4-methoxycyclohexyl)-7-methyl-8-oxo-8,9-dihydro-7H-purin-2-yl)amino)-5-methylbenzamide] has an IC50 of 4.14 nM.
Molecule `Cc1cc(Cl)ccc1Nc1ncc2c(n1)n(C1CCOCC1)c(=O)n2C` [Compound 4, 2-((4-chloro-2-methylphenyl)amino)-7-methyl-9-(tetrahydro-2H-pyran-4-yl)-7,9-dihydro-8H-purin-8-one] has an IC50 of 8.3 nM.
`Cc1cc(C(N)=O)c(F)cc1Nc1ncc2c(n1)n(C1CCC(CO)OC1)c(=O)n2C` (stereo not drawn) [Compound 96, 2-Fluoro-4-((9-(6-(hydroxymethyl)tetrahydro-2H-pyran-3-yl)-7-methyl-8-oxo-8,9-dihydro-7H-purin-2-yl)amino)-5-methylbenzamide] was tested, and the IC50 was 3.89 nM.
`Cc1sc(C#N)cc1Nc1ncc2c(n1)n(C1CCOCC1)c(=O)n2C` [Compound 43, 5-Methyl-4-((7-methyl-8-oxo-9-(tetrahydro-2H-pyran-4-yl)-8,9-dihydro-7H-purin-2-yl)amino)thiophene-2-carbonitrile] was tested, and the IC50 was 9.8 nM.
Molecule `Cc1cc(C(N)=O)c(F)cc1Nc1ncc2c(n1)n(C1CCCC(O)C1)c(=O)n2C` (stereo not drawn) [Compound 95, 2-Fluoro-4-((9-(-3-hydroxycyclohexyl)-7-methyl-8-oxo-8,9-dihydro-7H-purin-2-yl)amino)-5-methylbenzamide] has an IC50 of 0.6 nM.
Molecule `Cc1cc(C(N)=O)c(F)cc1Nc1ncc2c(n1)n(C1CCOCC1)c(=O)n2C1CC1` [Compound 64, 4-((7-cyclopropyl-8-oxo-9-(tetrahydro-2H-pyran-4-yl)-8,9-dihydro-7H-purin-2-yl)amino)-2-fluoro-5-methylbenzamide] has an IC50 of 3.34 nM.
`Cc1cc(C#N)ccc1Nc1ncc2c(n1)n(C1CC3CC(O)CC3C1)c(=O)n2C` (stereo not drawn) [Compound 98, 4-[(9-(5-hydroxy-octahydropentalen-2-yl)-7-methyl-8-oxo-8,9-dihydro-7H-purin-2-yl)amino]-3-methylbenzonitrile] showed an IC50 of 4.01 nM.
Work on `Cc1cc(C(N)=O)c(F)cc1Nc1ncc2c(n1)n(C1CCC3(CC1)COC3)c(=O)n2C` [Compound 86, 2-Fluoro-5-methyl-4-((7-methyl-8-oxo-9-(2-oxaspiro[3.5]nonan-7-yl)-8,9-dihydro-7H-purin-2-yl)amino)benzamide] yielded an IC50 of 0.44 nM.
With `Cc1cc(F)ccc1Nc1ncc2c(n1)n(C1CCOCC1)c(=O)n2C` [Compound 7, 2-((4-fluoro-2-methylphenyl)amino)-7-methyl-9-(tetrahydro-2H-pyran-4-yl)-7,9-dihydro-8H-purin-8-one] the IC50 was 5.47 nM.
Work on `Cn1c(=O)n(C2CCOCC2)c2nc(Nc3cc(F)c(C(N)=O)cc3Cl)ncc21` [Compound 59, 5-Chloro-2-fluoro-4-((7-methyl-8-oxo-9-(tetrahydro-2H-pyran-4-yl)-8,9-dihydro-7H-purin-2-yl)amino)benzamide] yielded an IC50 of 12.1 nM.
`CCn1c(=O)n([C@H]2CCOC2)c2nc(Nc3cc(F)c(C(N)=O)cc3C)ncc21` [Compound 107, (S)((7-Ethyl-8-oxo-9-(tetrahydrofuran-3-yl)-8,9-dihydro-7H-purin-2-yl)amino)-2-fluoro-5-methylbenzamide] gave an IC50 of 10.1 nM.
Work on `[2H]C([2H])([2H])C([2H])([2H])n1c(=O)n(C2CCOCC2)c2nc(Nc3cc(F)c(C(N)=O)cc3C)ncc21` [Compound 105, 4-((7-(ethyl-d5)-8-oxo-9-(tetrahydro-2H-pyran-4-yl)-8,9-dihydro-7H-purin-2-yl)amino)-2-fluoro-5-methylbenzamide] yielded an IC50 of 5.54 nM.
`Cc1cc(C(N)=O)c(F)cc1Nc1ncc2c(n1)n(C1CC3(CC(CO)C3)C1)c(=O)n2C` (stereo not drawn) [Compound 97, 2-Fluoro-4-((9-(6-(hydroxymethyl)spiro[3.3]heptan-2-yl)-7-methyl-8-oxo-8,9-dihydro-7H-purin-2-yl)amino)-5-methylbenzamide] was tested, and the IC50 was 0.68 nM.
`CO[C@H]1CC[C@H](n2c(=O)n(C)c3cnc(Nc4cc(F)c(C(N)=O)cc4C)nc32)CC1` [Compound 71, 2-Fluoro-4-((9-(trans-4-methoxycyclohexyl)-7-methyl-8-oxo-8,9-dihydro-7H-purin-2-yl)amino)-5-methylbenzamide] was tested, and the IC50 was 2.17 nM.
Molecule `Cc1cc(C(F)(F)F)ccc1Nc1ncc2c(n1)n(C1CCOCC1)c(=O)n2C` [Compound 3, 7-Methyl-2-((2-methyl-4-(trifluoromethyl)phenyl)amino)-9-(tetrahydro-2H-pyran-4-yl)-7,9-dihydro-8H-purin-8-one] has an IC50 of 18.6 nM.
In the case of `Cc1cc(C#N)ccc1Nc1ncc2c(n1)n(C1CCS(=O)(=O)CC1)c(=O)n2C` [Compound 101, 4-((9-(1,1-dioxidotetrahydro-2H-thiopyran-4-yl)-7-methyl-8-oxo-8,9-dihydro-7H-purin-2-yl)amino)-3-methylbenzonitrile], the IC50 is reported as 9.6 nM.
Work on `Cc1cc(C(N)=O)c(F)cc1Nc1ncc2c(n1)n(C1CC3(COC3)C1)c(=O)n2C` [Compound 89, 2-Fluoro-5-methyl-4-((7-methyl-8-oxo-9-(2-oxaspiro[3.3]heptan-6-yl)-8,9-dihydro-7H-purin-2-yl)amino)benzamide] yielded an IC50 of 3.83 nM.
`COc1ccc(Nc2ncc3c(n2)n(C2CCOCC2)c(=O)n3C)c(C)n1` [Compound 21] was tested, and the IC50 was 53 nM.
In the case of `Cc1[nH]c(=O)ccc1Nc1ncc2c(n1)n(C1CCOCC1)c(=O)n2C` [Compound 40], the IC50 is reported as 39.2 nM.
`[2H]C([2H])([2H])NC(=O)c1cc(C)c(Nc2ncc3c(n2)n(C2CCOCC2)c(=O)n3C)cc1F` [Compound 37, 2-Fluoro-5-methyl-N-(methyl-d3)-4-((7-methyl-8-oxo-9-(tetrahydro-2H-pyran-4-yl)-8,9-dihydro-7H-purin-2-yl)amino)benzamide] gave an IC50 of 11.9 nM.
With `Cc1cc(=O)n(C)cc1Nc1ncc2c(n1)n(C1CCOCC1)c(=O)n2C` [Compound 56, 2-((1,4-Dimethyl-6-oxo-1,6-dihydropyridin-3-yl)amino)-7-methyl-9-(tetrahydro-2H-pyran-4-yl)-7,9-dihydro-8H-purin-8-one] the IC50 was 14.3 nM.
Molecule `Cc1cc(C(N)=O)c(F)cc1Nc1ncc2c(n1)n(C1CCCCC1)c(=O)n2C` [Compound 68, 4-((9-cyclohexyl-7-methyl-8-oxo-8,9-dihydro-7H-purin-2-yl)amino)-2-fluoro-5-methylbenzamide] has an IC50 of 0.01 nM.
Work on `Cc1cc(C(N)=O)c(F)cc1Nc1ncc2c(n1)n(C1C[C@H]3CC(O)C[C@H]3C1)c(=O)n2C` (stereo partly drawn) [Compound 84, 2-Fluoro-4-((9-((3aR,6aS)-5-hydroxyoctahydropentalen-2-yl)-7-methyl-8-oxo-8,9-dihydro-7H-purin-2-yl)amino)-5-methylbenzamide] yielded an IC50 of 0.24 nM.
Work on `Cc1ccc(C#N)cc1Nc1ncc2c(n1)n(C1CCOCC1)c(=O)n2C` [Compound 15, 4-Methyl-3-((7-methyl-8-oxo-9-(tetrahydro-2H-pyran-4-yl)-8,9-dihydro-7H-purin-2-yl)amino)benzonitrile] yielded an IC50 of 5.28 nM.
Work on `Cc1cc(C(=O)NC(C)C)ccc1Nc1ncc2c(n1)n(C1CCOCC1)c(=O)n2C` [Compound 30, N-Isopropyl-3-methyl-4-((7-methyl-8-oxo-9-(tetrahydro-2H-pyran-4-yl)-8,9-dihydro-7H-purin-2-yl)amino)benzamide] yielded an IC50 of 66.6 nM.
Work on `Cc1cc(C(N)=O)c(F)c(C)c1Nc1ncc2c(n1)n(C1CCOCC1)c(=O)n2C` [Compound 60, 2-Fluoro-3,5-dimethyl-4-((7-methyl-8-oxo-9-(tetrahydro-2H-pyran-4-yl)-8,9-dihydro-7H-purin-2-yl)amino)benzamide] yielded an IC50 of 29.7 nM.
`Cc1cc(=O)[nH]cc1Nc1ncc2c(n1)n(C1CCOCC1)c(=O)n2C` [Compound 55, 7-Methyl-2-((4-methyl-6-oxo-1,6-dihydropyridin-3-yl)amino)-9-(tetrahydro-2H-pyran-4-yl)-7,9-dihydro-8H-purin-8-one] was tested, and the IC50 was 14.8 nM.
Work on `CNC(=O)c1cc(C)c(Nc2ncc3c(n2)n(C2CCOCC2)c(=O)n3C)cc1F` [Compound 36, 2-Fluoro-N,5-dimethyl-4-((7-methyl-8-oxo-9-(tetrahydro-2H-pyran-4-yl)-8,9-dihydro-7H-purin-2-yl)amino)benzamide] yielded an IC50 of 17.9 nM.

Source: patent US20230165867A1 (CHENGDU BAIYU PHARMACEUTICAL CO., LTD., priority 2020, published 2023)
